Tests used:
[1] = Acute toxicity, LD50 rat i.v.; settings: in vivo, iv, read-out: Akute Toxizität LD50 Ratte i.v.
Description: (§1) Die antihypertensive Wirksamkeit der erfindungsgemäßen Verbindungen kann in verschiedenen pharmakolgischen Tests nachgewiesen werden.

[2] = Acute toxicity, LD50 mouse i.v.; settings: in vivo, iv, read-out: Akute Toxizität LD50 Maus i.v.
Description: as §1

wachen Hund = assay: Blood pressure lowering in the conscious dog; assay type: in vivo; settings: wacher Hund; compared with Bucindolol
Description: as §1

narkotisierten Hund = assay: Blood pressure lowering in the anaesthetised dog; assay type: in vivo; settings: narkotisierter Hund; compared with Bucindolol
Description: as §1

Question: Which results are given for `CC(C)(Cc1c[nH]c2ccccc12)NCC(O)COc1ccccc1C#N` (stereo not drawn) [Bucindolol, 2-<2-Hydroxy-3-<[2-(3-indolyl)-1,1-dimethyläthyl] amino>-propoxy>benzonitril, reference compound]?
Answer: LD50 ([1]; Ratte, i.v.): 20.2 mg/kg; LD50 ([2]; Maus, i.v.): 9.6 mg/kg

Question: With `CC(C)(Cc1c[nH]c2ccccc12)NCC(O)COc1ccsc1C(N)=O` (racemic) [Beispiel 2, 3-<3-[1,1-Dimethyl-2-(indol-3-yl)äthylamino]-2-hydroxy-- propoxy>-thiophen-2-carbonsäureamid] as the compound, how does the blutdrucksenkend (wachen Hund) read?
Answer: Its blutdrucksenkend is “ähnlich stark und anhaltend blutdrucksenkend wie das bekannte Bucindolol”.

Question: What about the LD50 [1] of the same compound?
Answer: Its LD50 is 86 mg/kg.

Question: And the blutdrucksenkend (narkotisierten Hund)?
Answer: Its blutdrucksenkend is “ähnlich stark und anhaltend blutdrucksenkend wie das bekannte Bucindolol”.

Question: And the LD50 [2]?
Answer: The LD50 was 74 mg/kg.

Reference: patent publication EP0065295A1, “Tryptamine derivatives of thienyloxypropanol amines, process for their preparation, pharmaceutical compositions containing them and preparation of the latter” (HOECHST AKTIENGESELLSCHAFT, priority 1981, dated 1982)
